Test system: CD1 female mouse brain lipidome
Experiment: Brain-region lipid levels (HPLC/MS/MS lipidomics) 2 h after single i.p. 3 mg/kg CP 55,940 vs vehicle
Format: in vivo
Method: The Bloomington Institutional Animal Care and Use Committee of Indiana University reviewed and approved the animal procedures. Female mice from the CD1 strain were utilized to match our study examining THC’s effects on the brain lipidome ([Leishman et al., 2018]). Mice were given a single i.p. injection of either 3 mg/kg CP or 1:1:18 cremophor:ethanol:saline vehicle (please refer to the section “3 mg/kg CP Is Relevant for Synthetic Cannabinoid Abuse and Has Stronger Effects on the Female Mouse Brain Lipidome During Adolescence” for a justification of dose and use of female mice). Three different age groups were given injections: PND 35 and PND 50 adolescents, and adult mice (PND 113). At least eight mice in each age group received CP and at least eight received vehicle. Matching the THC study time course ([Leishman et al., 2018]), mice were sacrificed via rapid decapitation 2 h after injection. Brains were immediately removed and flash-frozen in liquid nitrogen, and then stored at -80°C until dissections were performed. Brains were dissected on an ice-cold dissection plate into the following regions: STR, HIPP, CER, THAL, CTX, HYP, MID, and STEM. These abbreviations for these brain areas will be used exclusively when discussing the results generated by these specific dissections. Each dissected area was immediately placed in liquid nitrogen and then stored at -80°C until used for lipid extraction.
Tissue extracts were performed as previously described ([Bradshaw et al., 2006]; [Stuart et al., 2013]; [Raboune et al., 2014]; [Leishman et al., 2016a],[b], [2017], [2018]). First, samples were shock frozen in liquid nitrogen, weighed, and transferred to a centrifuge tube. The mass of the largest sample was multiplied by 50 to determine how many milliliters of HPLC-grade methanol (Fisher, Fair Lawn, NJ, United States) to add. Then, samples were spiked with 500 pmol deuterium-labeled NAGly (d8NAGly; Cayman Chemical, Ann Arbor, MI, United States). Samples were placed on ice in darkness for 2 h then individually homogenized and centrifuged at 19,000 × g for 20 min at 20°C. Supernatants were diluted with HPLC water (purified in house) to make a solution of 75% water, 25% supernatant. Lipids were partially purified on C18 solid phase extraction columns (Agilent, Palo Alto, CA, United States). A series of four elutions with 1.5 mL of 60%, 75%, 85%, and 100% methanol were collected ([Stuart et al., 2013]; [Leishman et al., 2016a],[b], [2018]).
As previously described ([Bradshaw et al., 2006]; [Tan et al., 2006]; [Smoum et al., 2010]; [Stuart et al., 2013]; [Tortoriello et al., 2013]; [Raboune et al., 2014]; [Leishman et al., 2016a],[b], [2017], [2018]), samples were analyzed using an Applied Biosystems API 3000 triple quadrupole mass spectrometer with electrospray ionization (Foster City, CA, United States). Using an Agilent XDB-C18 reversed phase analytical column and optimized mobile phase gradients, 20 μL from each elution were chromatographed. Two Shimadzu 10ADvp pumps (Columbia, MD, United States) provided the pressure for gradient elution. Mobile phase A: 20% methanol, 80% water (v/v) and 1 mM ammonium acetate (Sigma, St. Louis, MO, United States). Mobile phase B: 100% methanol, 1 mM ammonium acetate. Every method run began with 0% mobile phase B, reached 100% mobile phase B flowing at 0.2 mL/min, and gradually returned to 0% mobile phase B.
This screening library will be referred to as the lipidome when discussing data from this study. HPLC/MS/MS data were analyzed using Analyst software (Applied Biosystems) ([Bradshaw et al., 2006]; [Tan et al., 2006]; [Stuart et al., 2013]; [Tortoriello et al., 2013]; [Raboune et al., 2014]; [Leishman et al., 2016a],[b], [2017], [2018]). Chromatograms (Supplementary Figure 3) were generated by determining the retention time of analytes from the analytical column with a [M-1] or [M+1] parent peak and a fragmentation peak corresponding to the programmed values. […]

SMILES: CCCCCCC(C)(C)c1ccc([C@@H]2C[C@H](O)CC[C@H]2CCCO)c(O)c1 [CP 55,940]
- changes in lipid levels that were decreases (PND 50 MID): two
- number of lipids changed (PND 50 MID, 62 detected): 26
- 2-linoleoyl glycerol level vs vehicle (PND 50 STEM): ↓ (1-1.49 times lower than vehicle)
- 2-oleoyl glycerol level vs vehicle (PND 50 STEM): ↓ (1-1.49 times lower than vehicle)
- 2-palmitoyl glycerol level vs vehicle (PND 50 STEM): ↓ (1-1.49 times lower than vehicle)
- 6-ketoPGF1α level vs vehicle (PND 50 STEM): ↓ (1-1.49 times lower than vehicle)
- Linoleic acid level vs vehicle (PND 50 STEM): ↓ (1-1.49 times lower than vehicle)
- N-arachidonoyl GABA level vs vehicle (PND 50 STEM): ↓ (1-1.49 times lower than vehicle)
- N-arachidonoyl phenylalanine level vs vehicle (PND 50 STEM): ↑ (1-1.49 times higher than vehicle)
- N-arachidonoyl serine level vs vehicle (PND 50 STEM): ↓ (1-1.49 times lower than vehicle)
- N-arachidonoyl taurine level vs vehicle (PND 50 STEM): ↓ (1-1.49 times lower than vehicle)
- N-arachidonoyl tyrosine level vs vehicle (PND 50 STEM): ↓ (1-1.49 times lower than vehicle)
- N-oleoyl methionine level vs vehicle (PND 50 STEM): ↓ (1-1.49 times lower than vehicle)
- N-palmitoyl leucine level vs vehicle (PND 50 STEM): ↑ (1-1.49 times higher than vehicle)
- N-palmitoyl tyrosine level vs vehicle (PND 50 STEM): ↑ (1-1.49 times higher than vehicle)
- Oleic Acid level vs vehicle (PND 50 STEM): ↓ (1-1.49 times lower than vehicle)
- PGE2 level vs vehicle (PND 50 STEM): ↓ (1-1.49 times lower than vehicle)
- PGF2α level vs vehicle (PND 50 STEM): ↓ (1-1.49 times lower than vehicle)
- 2-arachidonoyl glycerol level vs vehicle (PND 50 STR): ↓ (1-1.49 times lower than vehicle)
- 2-linoleoyl glycerol level vs vehicle (PND 50 STR): ↓ (1-1.49 times lower than vehicle)
- Arachidonic acid level vs vehicle (PND 50 STR): ↓ (1-1.49 times lower than vehicle)
- Linoleic acid level vs vehicle (PND 50 STR): ↓ (1-1.49 times lower than vehicle)
- N-arachidonoyl GABA level vs vehicle (PND 50 STR): ↓ (1-1.49 times lower than vehicle)
- N-arachidonoyl glycine level vs vehicle (PND 50 STR): ↓↓ (1.50-1.99 times lower than vehicle)
- N-arachidonoyl phenylalanine level vs vehicle (PND 50 STR): ↓ (1-1.49 times lower than vehicle)
- N-arachidonoyl taurine level vs vehicle (PND 50 STR): ↓ (1-1.49 times lower than vehicle)
- N-docosahexaenoyl GABA level vs vehicle (PND 50 STR): ↓ (1-1.49 times lower than vehicle)
- N-docosahexaenoyl glycine level vs vehicle (PND 50 STR): ↓↓ (1.50-1.99 times lower than vehicle)
- N-palmitoyl leucine level vs vehicle (PND 50 STR): ↑ (1-1.49 times higher than vehicle)
- N-palmitoyl tyrosine level vs vehicle (PND 50 STR): ↑ (1-1.49 times higher than vehicle)
- N-palmitoyl valine level vs vehicle (PND 50 STR): ↑↑ (1.50-1.99 times higher than vehicle)
- Oleic Acid level vs vehicle (PND 50 STR): ↓ (1-1.49 times lower than vehicle)
- PGF2α level vs vehicle (PND 50 STR): ↑ (1-1.49 times higher than vehicle)
- 2-arachidonoyl glycerol level vs vehicle (PND 50 THAL): ↓ (1-1.49 times lower than vehicle)
- 2-linoleoyl glycerol level vs vehicle (PND 50 THAL): ↓ (1-1.49 times lower than vehicle)
- 2-oleoyl glycerol level vs vehicle (PND 50 THAL): ↓ (1-1.49 times lower than vehicle)
- 6-ketoPGF1α level vs vehicle (PND 50 THAL): ↑↑ (1.50-1.99 times higher than vehicle)
- Arachidonic acid level vs vehicle (PND 50 THAL): ↓ (1-1.49 times lower than vehicle)
- Linoleic acid level vs vehicle (PND 50 THAL): ↓ (1-1.49 times lower than vehicle)
- N-arachidonoyl GABA level vs vehicle (PND 50 THAL): ↓ (1-1.49 times lower than vehicle)
- N-arachidonoyl ethanolamine level vs vehicle (PND 50 THAL): ↓ (1-1.49 times lower than vehicle)
- N-arachidonoyl glycine level vs vehicle (PND 50 THAL): ↓↓ (1.50-1.99 times lower than vehicle)
- N-arachidonoyl phenylalanine level vs vehicle (PND 50 THAL): ↓↓ (1.50-1.99 times lower than vehicle)
- N-arachidonoyl taurine level vs vehicle (PND 50 THAL): ↓ (1-1.49 times lower than vehicle)
- N-arachidonoyl tyrosine level vs vehicle (PND 50 THAL): ↓ (1-1.49 times lower than vehicle)
- N-docosahexaenoyl GABA level vs vehicle (PND 50 THAL): ↓ (1-1.49 times lower than vehicle)
- N-linoleoyl GABA level vs vehicle (PND 50 THAL): ↓↓ (1.50-1.99 times lower than vehicle)
- N-palmitoyl leucine level vs vehicle (PND 50 THAL): ↑ (1-1.49 times higher than vehicle)
- N-palmitoyl serine level vs vehicle (PND 50 THAL): ↓ (1-1.49 times lower than vehicle)
- N-stearoyl serine level vs vehicle (PND 50 THAL): ↓ (1-1.49 times lower than vehicle)
- Oleic Acid level vs vehicle (PND 50 THAL): ↓ (1-1.49 times lower than vehicle)
- PGE2 level vs vehicle (PND 50 THAL): ↓ (1-1.49 times lower than vehicle)
- PGF2α level vs vehicle (PND 50 THAL): ↓ (1-1.49 times lower than vehicle)
- changes in NAEs (all decreases) (PND 50 brain): 16
- changes in lipoamines derived from AA (PND 50 brain): 41
- decreases in 2-acyl glycerol levels (PND 50 brain): 17
- decreases in PG levels (PND 50 brain): 11
- decreases in free fatty acid levels (PND 50 brain): 16
- increases in PG levels (PND 50 brain): 7
- percentage of detected lipids modified with acute CP (PND 50 brain, 450 detected): 31.33%
- total changes in lipid levels across the eight regions (adult): 97
- 2-arachidonoyl glycerol level vs vehicle (adult CER): ↓ (1-1.49 times lower than vehicle)
- 2-linoleoyl glycerol level vs vehicle (adult CER): ↓↓ (1.50-1.99 times lower than vehicle)
- 2-oleoyl glycerol level vs vehicle (adult CER): ↓ (1-1.49 times lower than vehicle)
- 6-ketoPGF1α level vs vehicle (adult CER): ↓ (1-1.49 times lower than vehicle)
- Arachidonic acid level vs vehicle (adult CER): ↓ (1-1.49 times lower than vehicle)
- Linoleic acid level vs vehicle (adult CER): ↓↓ (1.50-1.99 times lower than vehicle)
- N-arachidonoyl GABA level vs vehicle (adult CER): ↓↓ (1.50-1.99 times lower than vehicle)
- N-arachidonoyl ethanolamine level vs vehicle (adult CER): ↓↓ (1.50-1.99 times lower than vehicle)
- N-arachidonoyl phenylalanine level vs vehicle (adult CER): ↓↓↓ (2-2.99 times lower than vehicle)
- N-arachidonoyl taurine level vs vehicle (adult CER): ↓ (1-1.49 times lower than vehicle)
- N-docosahexaenoyl GABA level vs vehicle (adult CER): ↓ (1-1.49 times lower than vehicle)
- N-docosahexaenoyl ethanolamine level vs vehicle (adult CER): ↓ (1-1.49 times lower than vehicle)
- N-linoleoyl GABA level vs vehicle (adult CER): ↓ (1-1.49 times lower than vehicle)
- N-linoleoyl ethanolamine level vs vehicle (adult CER): ↓↓ (1.50-1.99 times lower than vehicle)
- N-oleoyl serine level vs vehicle (adult CER): ↓ (1-1.49 times lower than vehicle)
- N-oleoyl valine level vs vehicle (adult CER): ↑↑↑ (2-2.99 times higher than vehicle)
- N-palmitoyl tyrosine level vs vehicle (adult CER): ↓ (1-1.49 times lower than vehicle)
- Oleic Acid level vs vehicle (adult CER): ↓↓ (1.50-1.99 times lower than vehicle)
- PGE2 level vs vehicle (adult CER): ↓ (1-1.49 times lower than vehicle)
- PGF2α level vs vehicle (adult CER): ↓ (1-1.49 times lower than vehicle)
- changes in lipid levels that were decreases (adult CER): 20
- changes in lipid levels that were increases (adult CER): 1
- phosphoLEA level vs vehicle (adult CER): ↓ (1-1.49 times lower than vehicle)
- number of lipids changed (adult CER, 53 detected): 21
- 2-linoleoyl glycerol level vs vehicle (adult CTX): ↓ (1-1.49 times lower than vehicle)
- 6-ketoPGF1α level vs vehicle (adult CTX): ↓ (1-1.49 times lower than vehicle)
- Arachidonic acid level vs vehicle (adult CTX): ↓ (1-1.49 times lower than vehicle)
- N-arachidonoyl taurine level vs vehicle (adult CTX): ↓ (1-1.49 times lower than vehicle)
- N-linoleoyl GABA level vs vehicle (adult CTX): ↓ (1-1.49 times lower than vehicle)
- N-palmitoyl valine level vs vehicle (adult CTX): ↑ (1-1.49 times higher than vehicle)
- N-stearoyl phenylalanine level vs vehicle (adult CTX): ↓↓ (1.50-1.99 times lower than vehicle)
- PGF2α level vs vehicle (adult CTX): ↓ (1-1.49 times lower than vehicle)
- number of lipids changed (adult CTX, 58 detected): eight
- 2-linoleoyl glycerol level vs vehicle (adult HIPP): ↓ (1-1.49 times lower than vehicle)
- N-arachidonoyl GABA level vs vehicle (adult HIPP): ↓ (1-1.49 times lower than vehicle)
- N-arachidonoyl alanine level vs vehicle (adult HIPP): ↓ (1-1.49 times lower than vehicle)
- N-arachidonoyl glycine level vs vehicle (adult HIPP): ↓ (1-1.49 times lower than vehicle)
- N-arachidonoyl phenylalanine level vs vehicle (adult HIPP): ↓↓ (1.50-1.99 times lower than vehicle)
- N-docosahexaenoyl GABA level vs vehicle (adult HIPP): ↓ (1-1.49 times lower than vehicle)
- N-oleoyl GABA level vs vehicle (adult HIPP): ↓ (1-1.49 times lower than vehicle)
- N-oleoyl phenylalanine level vs vehicle (adult HIPP): ↓ (1-1.49 times lower than vehicle)

Reference: article PMC6277767, “Broad and Region-Specific Impacts of the Synthetic Cannabinoid CP 55,940 in Adolescent and Adult Female Mouse Brains” (Frontiers in Molecular Neuroscience, 2018)
